What is called IC50 is the point on the concentration scale where inhibition reaches its midpoint. Read a low IC50 as greater potency in that assay. In general, Kd refers to the free concentration of one partner at which half of the binding sites on the other are occupied at equilibrium, for simple one-to-one binding. Low values mean higher affinity, high ones lower affinity.

Experimental findings from publication PMC4640066 (Nature Communications, 2015) are described below.

In test [1] the test system is γ-tubulin-dependent, RanQ69L-stimulated aster formation. The experiment in a line: RanQ69L-stimulated aster formation in M-phase Xenopus egg extracts. The class given is biochemical. The procedure: Cytostatic factor (CSF)-arrested M phase Xenopus egg extracts (CSF extracts) were prepared. Briefly, unfertilized eggs were crushed by 10,700g centrifugation for 20 min. M phase extracts were mixed with 0.5 μM Cy3-labelled α/β-tubulin and various concentrations of compounds. After incubation for 30 min on ice, 15 μM RanQ69L, 200 sperm nuclei per μl or 5% DMSO were added and incubated for 30 min on ice. After incubation for 20 min at 20 °C (for the samples with sperm nuclei, the incubation time was 30 min), 1.5 μl sample was fixed with 1.5 μl fix solution (0.3 volume of 37% formaldehyde, 0.6 volume of 80% glycerol and 0.1 vol of 10 × MMR solution (50 mM HEPES, pH 7.8, 1 M NaCl, 20 mM KCl, 10 mM MgCl2, 20 mM CaCl2 and 1 mM EDTA)), followed by the squash fix.
Images were acquired using a microscope (Axiovert 200 M; Carl Zeiss Inc.) equipped with a plan-Apochromat × 63 NA 1.3 oil objective lens (Carl Zeiss Inc.), a Cy3 emission filter and a Cascade:1 K (Photometrics Inc.) camera, and the AxioVision software (Carl Zeiss Inc.). The aster size and fluorescence intensity were quantified using a macro written in MATLAB[41].

Test [2] has as its target T1, human γ-tubulin (Homo sapiens, UniProt P23258).
T1 construct: myc (C); 6His (C); made in house; host or cells: Sf21 insect cells (baculovirus)
The experiment in a line: Inhibition of GTP binding of γ-tubulin (α-[32P]-GTP crosslinking assay). The conditions noted are these: 60 μM compound; 70 nM γ-tubulin, 100 nM α-[32P]-GTP; mean±s.d. The procedure:
For analysis of the effect of drugs on GTP binding of γ-tubulin, 70 nM of purified human γ-tubulin in GTP-binding buffer (50 mM MES, 5 mM MgCl2, 1 mM EGTA, pH 6.6) was incubated with or without compounds for 15 min at 20 °C. A final concentration of 100 nM of α-[^32P]-GTP was added and incubated at 20 °C for 30 min. After incubation, bound α-[^32P]-GTP was crosslinked to γ-tubulin for 60 s by illumination with a ultraviolet lamp using CL-1000 Ultraviolet Crosslinker. Protein with the crosslinked GTP was separated from unbound nucleotide by TCA precipitation and SDS–PAGE, and ^32P labelling was measured using a Typhoon FLA-7000 (General Electronic Company). Band intensities were quantified with the ImageJ software.

The next test concerns HeLa cells. The experiment in a line: Transition from S phase to mitotic entry and spindle formation. It is filed as cell-based, human. The conditions noted are these: 30 μM. The method, then:
Cells expressing EGFP-α-tubulin and mCherry-H2B were prepared as described previously. Cells were arrested at the S phase with 2-mM thymidine treatment for 15 h. To determine the time required for mitotic entry from S phase release, thymidine was removed by washing cells with PBS three times. After treatment with 30 μM gatastatin for 9 h, time-lapse analysis was performed using DeltaVision Olympus IX71 microscope (Applied Precision) equipped with CoolSNAP HQ camera (Photometrics). Images were taken every 6 min with 12 z-stack (1 μm per stack). During live cell imaging, cells were maintained at 37 °C and were supplied with 5% CO2. The timing of the mitotic entry was defined by the chromosome condensation after nuclear envelope breakdown.

Test [3] deals with T1, human γ-tubulin. The experiment in a line: Tryptophan-based drug-binding assay, γ-tubulin. The conditions noted are these: for Ratio of Kd[α/β-tubulin]/Kd[γ-tubulin]: selectivity for γ-tubulin over α/β-tubulin. The procedure: In brief, 0.7 × 10^6 cells ml^−1 were infected with the γ-tubulin baculovirus. After 48 h, cells were collected by centrifugation at […] for 10 min and flash-frozen in liquid nitrogen and stored at −80 °C. Purification was carried out as described with slight modifications. […] Imidazole (final 10 mM) was added and the lysate was centrifuged again at 192,800g for 30 min at 4 °C. […] Ni-NTA Agarose was then washed twice with wash buffer 1 (lysis buffer containing 25 mM imidazole) and wash buffer 2 (50 mM MES pH 6.6, 500 mM KCl, 5 mM MgCl2, 10% glycerol, 10 μM GTP and 1 mM DTT) containing 25 mM imidazole. γ-Tubulin was eluted with wash buffer 2 containing 200 mM imidazole.
Monomeric γ-tubulin was prepared using a size exclusion column HiLoad 16/60 Superdex 200 pre-equilibrated with gel filtration buffer (50 mM MES pH 6.6, 500 mM KCl, 5 mM MgCl2, 1 mM EGTA, 10 μM GTP and 1 mM DTT). The peak fractions representing monomeric γ-tubulin were identified by A280 and confirmed using SDS–PAGE. Protein was concentrated using a Vivaspin concentrator (Sartorius) and supplemented with 10% glycerol, following snap-freezing in liquid nitrogen and storage at −80 °C.
Gel filtration buffer for γ-tubulin purification (50 mM MES pH 6.6, 500 mM KCl, 5 mM MgCl2, 1 mM EGTA and 1 mM DTT) supplemented with 10% of glycerol was used as an assay buffer. γ-tubulin and α/β-tubulin were diluted in this assay buffer to reach a final protein concentration of 1 μM. A final concentration of 10 μM or 1 mM GTP was added to the samples. Proteins were incubated for 30 min with compounds (final DMSO concentration was 1%; 2% for AG1 and gatastatin). […] Dissociation constants were calculated from fitting curves of decreasing fluorescence (ΔFL) using the GraphPad Prizm software.

T1 sequence (P23258 whole entry): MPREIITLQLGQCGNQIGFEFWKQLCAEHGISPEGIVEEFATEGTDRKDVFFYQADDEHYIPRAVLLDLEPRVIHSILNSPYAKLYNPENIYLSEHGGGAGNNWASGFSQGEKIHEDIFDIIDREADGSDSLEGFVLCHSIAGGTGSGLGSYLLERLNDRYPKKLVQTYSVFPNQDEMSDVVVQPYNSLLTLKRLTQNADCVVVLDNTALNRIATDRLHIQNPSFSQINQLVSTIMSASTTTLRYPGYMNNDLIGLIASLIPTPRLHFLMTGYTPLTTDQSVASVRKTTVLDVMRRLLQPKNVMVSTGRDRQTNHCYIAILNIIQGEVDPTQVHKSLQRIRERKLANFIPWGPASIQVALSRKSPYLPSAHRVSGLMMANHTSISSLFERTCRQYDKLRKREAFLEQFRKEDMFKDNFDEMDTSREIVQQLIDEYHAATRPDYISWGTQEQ

In test [1] (M-phase-arrested Xenopus egg extracts, 15 μM RanQ69L, 20 min at 20 °C), `COc1cc2c(=O)c(-c3cc(OC)c4c(c3OC)OCO4)coc2cc1OCc1ccccc1` [Gatastatin, O^7-demethylbenzyl AG1] had a 50% inhibitory concentration (IC50) of 9.7 µM. In test [1] (Xenopus egg extracts), the “Effect on number of RanQ69L-dependent asters” value was “without changing the number of asters”. Moreover, at human γ-tubulin [2], the “GTP binding (control %)” value stood at 6.7±3.7%. The “Mitotic cells with abnormal bipolar spindles with misaligned chromosomes” value with HeLa cells (HeLa cells released from S phase (thymidine)) was about 80%. Also, the “Timing of mitotic entry versus DMSO” value in the test with HeLa cells (HeLa released from S phase) is on record as “virtually identical”. In addition, the figures for the “Ratio of Kd[α/β-tubulin]/Kd[γ-tubulin]” value at human γ-tubulin [3] and at human γ-tubulin [3] (listed as gatastatin) were 11.81 and 12, respectively. Also, the Kd at human γ-tubulin [3] (tryptophan fluorescence decrease, 1 μM protein, mean±s.d., three independent experiments) amounted to 3.6 ± 1.3 µM.
